In EPA's ToxValDB 9.5 (doi:10.2903/j.efsa.2009.179r):

What was measured:
[1] = system: Apis mellifera; settings: acute; duration: 48 hours; dermal; mortality
[2] = system: Canidae; settings: Dog Other, clinical signs
[3] = system: Coturnix japonica
[4] = system: Daphnia magna; settings: chronic/long-term; duration: 21 days; reproduction
[5] = system: Oncorhynchus mykiss
[6] = system: Oryctolagus sp.; settings: acute; oral; mortality
[7] = system: Rattus norvegicus; settings: reproduction developmental
[8] = system: Tagia sp.
[9] = system: Aphidius rhopalosiphi; experiment: LR50; higher = less toxic; settings: not reported; mortality

Work on `C[N+](C)(C)CCCl.[Cl-]` [Chlormequat chloride] yielded an LD50 [1] greater than 65.2 µg/piece, an NOAEL ([2]; chronic, duration: 1 years, oral) of 4 mg/kg-day and an NOAEL ([2]; short-term, duration: 4 weeks) of 9 mg/kg-day. For the same compound, the LC50 ([3]; acute, oral, diet, mortality) was greater than 310 mg/kg-day, the LD50 ([3]; acute, oral, mortality) was 441 mg/kg-day and the NOEC ([3]; reproduction developmental) was 54.8 mg/kg-day. For the same compound, the NOEC [4] was 2.4 mg/L, the LC50 ([5]; acute, duration: 96 hours, mortality) was greater than 100 µg/mL and the NOEC ([5]; chronic/long-term, duration: 21 days, growth) was 43.1 mg/L. For the same compound, the LD50 [6] was 115 mg/kg-day, the NOAEL ([7]; body weight) was 41 mg/kg-day and the NOAEL ([7]; reproduction) was 74 mg/kg-day. It also gave an LC50 ([8]; acute, duration: 14 days, mortality) of 320 mg/kg, an NOEC ([8]; chronic/long-term, duration: 56 days) of 680 mg/kg and an LR50 [9] greater than 2200 g/ha.
